In US20250221966A1, “RXFP1 AGONISTS” (BRISTOL-MYERS SQUIBB COMPANY, priority 2021, published 2025):

Target: T1, human RXFP1 (Homo sapiens, UniProt Q9HBX9)
T1 construct: expressed in transfected cells
T1 sequence (Q9HBX9 1-757): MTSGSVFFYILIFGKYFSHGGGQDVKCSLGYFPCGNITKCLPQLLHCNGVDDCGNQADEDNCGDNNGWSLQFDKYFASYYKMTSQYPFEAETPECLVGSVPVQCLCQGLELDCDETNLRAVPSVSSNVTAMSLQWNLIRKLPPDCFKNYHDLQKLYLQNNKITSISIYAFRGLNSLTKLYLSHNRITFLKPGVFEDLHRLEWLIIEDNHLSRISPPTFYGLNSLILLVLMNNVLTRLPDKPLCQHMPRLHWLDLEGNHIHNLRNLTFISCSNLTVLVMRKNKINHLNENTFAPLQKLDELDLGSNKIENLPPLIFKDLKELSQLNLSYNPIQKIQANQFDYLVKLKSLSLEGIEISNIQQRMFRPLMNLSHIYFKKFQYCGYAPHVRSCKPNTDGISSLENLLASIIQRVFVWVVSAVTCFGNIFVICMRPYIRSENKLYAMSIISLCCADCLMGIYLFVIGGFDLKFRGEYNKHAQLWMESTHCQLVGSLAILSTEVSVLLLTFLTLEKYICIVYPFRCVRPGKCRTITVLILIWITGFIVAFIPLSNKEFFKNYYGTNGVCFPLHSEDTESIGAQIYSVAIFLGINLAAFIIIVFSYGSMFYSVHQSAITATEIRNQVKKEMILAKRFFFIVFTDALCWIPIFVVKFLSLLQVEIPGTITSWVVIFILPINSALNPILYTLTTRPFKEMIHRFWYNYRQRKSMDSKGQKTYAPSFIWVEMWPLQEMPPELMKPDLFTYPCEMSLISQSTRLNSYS
Test: RXFP1 cAMP assay (hRXFP1 HEK293 cAMP assay, HTRF)
Type: cell-based
Settings: HEK293 cells stably expressing human RXFP1, 30 min at room temperature, read-out: cAMP hRXFP1 HEK293 Assay EC50
Summary of the method: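 Intracellular cAMP was read by HTRF, with potency fitted to a 4-parameter logistic curve. Compound exposure (0.010 nM–50 μM final, 2% DMSO) lasted 30 min at room temperature. Cells were hRXFP1-HEK293 at 1500 per well in IBMX-containing (0.5 mM) HEPES-buffered HBSS.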

SMILES | EC50 [nM]
CCOC(=O)c1c(-c2ccc(F)cc2)[nH]c2ccc(-c3ccc(OC)c(C(=O)N[C@@H]4C5CCC(/C5=C/C(F)(F)F)[C@@H]4C(=O)Nc4ccc(F)c(C(F)(F)F)c4)c3)cc12 (stereo partly shown) [compound 298] | 70
CCC/C=C/C=C1\C2CCC1[C@H](C(=O)Nc1ccc(F)c(C(F)(F)F)c1)[C@@H]2NC(=O)c1cc(F)c(F)cc1OC (stereo partly shown) [compound 45] | 59
COc1ccc(C2=NOC3CC(O)CC23)cc1C(=O)N[C@H]1[C@@H](C(=O)Nc2ccc(F)c(C(F)(F)F)c2)[C@H]2CC[C@@H]1/C2=C\C(F)(F)F (stereo partly shown) [compound 543] | 30.5
COCC1(CNC(=O)[C@@H]2[C@H](NC(=O)c3cc(C4=NOC5COCC45)ccc3OC)[C@@H]3CC[C@H]2/C3=C/C2CC2)CC1 (stereo partly shown) [compound 701] | 1090
COc1ccc(C2=NOC3COCC23)cc1C(=O)N[C@H]1[C@@H](C(=O)N[C@@H]2CCc3ccccc32)[C@H]2CC[C@@H]1/C2=C\C1CC1 (stereo partly shown) [compound 577] | 70.7
COc1cc(F)c(F)cc1C(=O)N[C@@H]1C2CCC(/C2=C/C2=CCOCC2)[C@@H]1C(=O)Nc1ccc(F)c(C(F)(F)F)c1 (stereo partly shown) [compound 42] | 130
COc1ccc(-c2cc(CO)ccc2F)cc1C(=O)N[C@@H]1C2CCC(/C2=C/c2cnoc2)[C@@H]1C(=O)Nc1ccc(F)c(C(F)(F)F)c1 (stereo partly shown) [compound 176] | 57
COc1ccc(N2CCC(NC(=O)C3CCOCC3)C2)cc1C(=O)N[C@@H]1C2CCC(/C2=C/C(F)(F)F)[C@@H]1C(=O)Nc1ccc(F)c(C(F)(F)F)c1 (single isomer, unassigned) [compound 336] | 1930
COc1ccc(C2=NOC3CC(CO)CC23)cc1C(=O)N[C@H]1[C@@H](C(=O)Nc2ccc(F)c(C(F)(F)F)c2)[C@H]2CC[C@@H]1/C2=C\C(F)(F)F (stereo partly shown) [compound 533] | 23.4
COc1ccc(-c2cccnc2)cc1C(=O)N[C@H]1[C@@H](C(=O)Nc2ccc(F)c(C(F)(F)F)c2)[C@H]2CC[C@@H]1/C2=C\C(F)(F)F [Example 310, (1R,2S,3R,4R,Z)—N-(4-fluoro-3-(trifluoromethyl)phenyl)-3-(2-methoxy-5-(pyridin-3-yl)benzamido)-7-(2,2,2-trifluoroethylidene)bicyclo[2.2.1]heptane-2-carboxamide] | 162
COc1ccc(-c2cc(C(N)=O)on2)cc1C(=O)N[C@@H]1C2CCC(/C2=C/C2CC2)[C@@H]1C(=O)Nc1ccc(F)c(C(F)(F)F)c1 (stereo partly shown) [compound 426] | 45
COc1cccc(/C=C2\C3CCC2[C@H](C(=O)Nc2ccc(F)c(C(F)(F)F)c2)[C@@H]3NC(=O)c2cc(F)c(F)cc2OC)c1 (stereo partly shown) [compound 19] | 720
COc1ccc(C2CCCN2)cc1C(=O)N[C@@H]1C2CCC(C2=CC2CC2)[C@@H]1C(=O)Nc1ccc(F)c(C(F)(F)F)c1 (stereo partly shown) [compound 720] | 3140
COc1ccc(C2=NOC3CC(CO)CC23)cc1C(=O)N[C@@H]1C2CCC(/C2=C/C2CC2)[C@@H]1C(=O)Nc1ccc(F)c(C(F)(F)F)c1 (single isomer, unassigned) [compound 431] | 250
COc1ccc(C2=NOC3COCC23)cc1C(=O)N[C@H]1[C@@H](C(=O)N[C@H](C)C2CCCC2)[C@H]2CC[C@@H]1/C2=C\C1CC1 (stereo partly shown) [compound 535] | 24
COc1ccc(C2=NOC3CCCC23)cc1C(=O)N[C@H]1[C@@H](C(=O)Nc2ccc(F)c(C(F)(F)F)c2)[C@H]2CC[C@@H]1/C2=C\C1CC1 (single isomer, unassigned) [compound 662] | 360
COc1ccc(C2=NOC3CC(O)CC23)cc1C(=O)N[C@H]1[C@@H](C(=O)Nc2ccc(F)c(C(F)(F)F)c2)[C@H]2CC[C@@H]1/C2=C\C1CCC1 (mixture of isomers) [Example 406, (1R,2S,3R,4R,Z)-7-(cyclobutylmethylene)-N-(4-fluoro-3-(trifluoromethyl)phenyl)-3-(5-(5-hydroxy-3a,5,6,6a-tetrahydro-4H-cyclopenta[d]isoxazol-3-yl)-2-methoxybenzamido)bicyclo[2.2.1]heptane-2-carboxamide] | 48
COc1ccc(-c2cc([C@H](O)C(F)(F)F)ccc2F)cc1C(=O)NC1C2CCC(/C2=C/C2CC(F)(F)C2)C1C(=O)Nc1ccc(F)c(C(F)(F)F)c1 (stereo partly shown) [compound 358] | 18
COc1ccc(C2CCN(CC(C)(C)O)C2)cc1C(=O)N[C@@H]1C2CCC(C2=CC2CC2)[C@@H]1C(=O)Nc1ccc(F)c(C(F)(F)F)c1 (stereo partly shown) [compound 601] | 108
COc1ccc(-c2ccc(C(=O)NCCN3CCOCC3)cc2F)cc1C(=O)N[C@@H]1C2CCC(/C2=C/c2ccccc2)[C@@H]1C(=O)Nc1ccc(F)c(C(F)(F)F)c1 (stereo partly shown) [compound 198] | 76
O=C(N[C@H]1[C@@H](C(=O)Nc2ccc(F)c(C(F)(F)F)c2)[C@H]2CC[C@@H]1/C2=C\C1CC1)c1cc(C2=NOC3COCC23)ccc1F (single isomer, unassigned) [compound 677] | 501
COc1cc(F)c(F)cc1C(=O)N[C@@H]1C2CCC(/C2=C/c2ccccn2)[C@@H]1C(=O)Nc1ccc(F)c(C(F)(F)F)c1 (stereo partly shown) [compound 137] | 480

Continued by falling EC50, values first:

EC50 [nM] | SMILES
17.6 | COc1ccc(C2=NOC3CC(C(N)=O)CC23)cc1C(=O)N[C@H]1[C@@H](C(=O)NCC(C)(C)C)[C@H]2CC[C@@H]1/C2=C\C1CC1 (stereo partly shown) [compound 516]
16.5 | COc1ccc(C2=NOC3COCC23)c(F)c1C(=O)N[C@H]1[C@@H](C(=O)Nc2ccc(F)c(C(F)(F)F)c2)[C@H]2CC[C@@H]1/C2=C\C1CC1 (single isomer, unassigned) [compound 513]
16 | COc1ccc(-c2cc(C(N)=O)ccc2F)cc1C(=O)N[C@@H]1C2CCC(C2=C(C)C)[C@@H]1C(=O)Nc1ccc(F)c(C(F)(F)F)c1 (stereo partly shown) [Example 121]
9 | COc1ccc(-c2ccc3c(c2)nnn3CC(=O)O)cc1C(=O)N[C@@H]1C2CCC(/C2=C/C(F)(F)F)[C@@H]1C(=O)Nc1ccc(F)c(C(F)(F)F)c1 (stereo partly shown) [compound 312]
5.8 | COc1ccc(C2=NOC3COCC23)cc1C(=O)N[C@@H]1C2CCC(/C2=C/C2CC2)[C@@H]1C(=O)Nc1ccc(F)c(OC(F)(F)F)c1 (stereo partly shown) [compound 973]
5.5 | COc1ccc(-c2cc(C(C)CC(=O)O)ccc2F)cc1C(=O)N[C@H]1[C@@H](C(=O)Nc2ccc(F)c(C(F)(F)F)c2)[C@H]2CC[C@@H]1/C2=C\C1CC1 (stereo partly shown) [compound 887]
5 | COc1ccc(-c2cnc3n2CC(O)CC3)cc1C(=O)N[C@H]1[C@@H](C(=O)Nc2ccc(F)c(C(F)(F)F)c2)[C@H]2CC[C@@H]1/C2=C\C1CC1 (stereo partly shown) [compound 755]
5 | COC(=O)C(NC(C)=O)c1ccc(F)c(-c2ccc(OC)c(C(=O)N[C@@H]3C4CCC(/C4=C/C4CC4)[C@@H]3C(=O)Nc3ccc(F)c(C(F)(F)F)c3)c2)c1 (stereo partly shown) [Example 171]
4.8 | COc1ccc(-c2cc(C(OC(=O)Nc3ccccc3)C(=O)O)ccc2F)cc1C(=O)N[C@H]1[C@@H](C(=O)Nc2ccc(F)c(C(F)(F)F)c2)[C@H]2CC[C@@H]1/C2=C\C1CC1 (stereo partly shown) [compound 965]
4.7 | O=C(N[C@H]1[C@@H](C(=O)Nc2ccc(F)c(C(F)(F)F)c2)[C@H]2CC[C@@H]1/C2=C\C1CC1)c1cc(C2=NOC3COCC23)cc(F)c1OCC1CC1 (stereo partly shown) [compound 799]
4.5 | COc1ccc(-c2cnc3cc(CO)ccn23)cc1C(=O)N[C@@H]1C2CCC(/C2=C/C2CC2)[C@@H]1C(=O)Nc1ccc(F)c(C(F)(F)F)c1 (stereo partly shown) [compound 974]
4 | COCC(=O)NC(C(=O)O)c1ccc(F)c(-c2ccc(OC)c(C(=O)N[C@@H]3C4CCC(/C4=C/C(F)(F)F)[C@@H]3C(=O)Nc3ccc(F)c(C(F)(F)F)c3)c2)c1 (stereo partly shown) [compound 243]
3.9 | COc1ccc(-c2cccc(S(C)(=O)=O)c2)cc1C(=O)N[C@H]1[C@@H](C(=O)Nc2ccc(F)c(C(F)(F)F)c2)[C@H]2CC[C@@H]1/C2=C\C1CC1 [compound 898]
1.9 | COc1ccc(-c2cc(C(CC(F)(F)F)NC(=O)C3CCOCC3)ccc2F)cc1C(=O)N[C@H]1[C@@H](C(=O)Nc2ccc(F)c(C(F)(F)F)c2)[C@H]2CC[C@@H]1/C2=C\C1CCCC1 (stereo partly shown) [compound 944]
1.2 | COc1ccc(C2=NO[C@H]3CC(CO)C[C@@H]23)cc1C(=O)N[C@H]1[C@@H](C(=O)Nc2ccc(F)c(C(F)(F)F)c2)[C@H]2CC[C@@H]1/C2=C\CCF (stereo partly shown) [compound 814]
1 | COc1c(F)cc(C2=NOC3CC(CO)CC23)cc1C(=O)N[C@H]1[C@@H](C(=O)N[C@H](C)C2(C)CC2)[C@H]2CC[C@@H]1/C2=C\C1CC(F)(F)C1 (stereo partly shown) [compound 813]
1 | COc1ccc(-c2cc(C3=NOC4CC(CO)CC34)ccc2F)cc1C(=O)N[C@H]1[C@@H](C(=O)Nc2ccc(F)c(C(F)(F)F)c2)[C@H]2CC[C@@H]1/C2=C\C1CCCC1 (stereo partly shown) [compound 951]
0.9 | C[C@@H](NC(=O)[C@@H]1[C@H](NC(=O)c2cc(C3=NOC4CC(CO)CC34)cc(F)c2OCC2CC2)[C@@H]2CC[C@H]1/C2=C/C1CC1)C1(C)CC1 (stereo partly shown) [compound 758]
